Here are results for three compounds from patent US7569711B2, “Enone cancer therapeutics” (Cornell Univeristy, priority 2002, dated 2009).

Structures are written as SMILES. Like-named read-outs stand apart in the source and are kept apart here.

Test [1] deals with T1, hGSTP1-1 (Homo sapiens, UniProt P09211).
T1 construct: purchased Sigma Chemical Company; host or cells: human placenta
As to the kind of experiment: initial rates of reaction with hGSTP1-1 (substrate kinetics). It counts as biochemical. The conditions noted are these: pH 6.5, [GSH]=1 mM, 25° C.; estimated. On the procedure:
Initial rates of reaction of 1a and 1b with hGSTP1-1 were determined from reciprocal plots of initial velocities (ΔOD235/min), versus [substrate] in buffered solution at pH 6.5, with [GSH]=1 mM (25° C.). Under those conditions, the enzyme-catalyzed GSH addition became rate determining (<0.01 units of transferase in the assay cuvettes).

Test [2] has as its system murine and human tumors in culture. The conditions noted are these: range of different murine and human tumors in culture; read-out: IC50 antitumor activity; cited from earlier work.
The target of test [3] is T2, human erythrocyte GlxI (Homo sapiens, UniProt Q04760).
T2 construct: Kinetic studies with human erythrocyte GlxI; from tissue; host or cells: human erythrocytes
T2 sequence (Q04760 2-184 limits assumed): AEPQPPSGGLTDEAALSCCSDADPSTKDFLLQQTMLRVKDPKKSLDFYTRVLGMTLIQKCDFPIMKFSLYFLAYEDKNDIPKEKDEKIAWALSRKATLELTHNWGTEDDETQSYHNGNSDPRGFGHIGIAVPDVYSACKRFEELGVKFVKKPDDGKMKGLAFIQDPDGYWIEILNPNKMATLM
The conditions noted are these: competitive; previously reported; read-out: dissociation constant Ki; cited from earlier work.

Test [4] deals with T2, human erythrocyte GlxI. Put plainly: kinetic studies with human erythrocyte GlxI (competitive inhibition). It counts as biochemical. The conditions noted are these: sodium phosphate buffer, pH 7.0, 25° C., read-out: dissociation constant Ki. As for the experimental part:
In each kinetic run, the concentration of free GSH was maintained at 0.2 mM by varying the total concentration of GSH and methylglyoxal on the basis of the dissociation constant of the hemithioacetal (Kdiss=2.2 mM). Conditions: 50 mM phosphate buffer, pH 7.0, 25° C.
To investigate the mechanism of formation of 2b, the nonenzymatic reaction of 1b with GSH was monitored spectrophotometrically, and followed a simple first-order decay (FIG. 2, trace A). No intermediate species was detectable. However, in the presence of human placental glutathione transferase (GSTP 1-1) (Predominantly the pi or P1-1 isoform, purchased from Sigma Chemical Company. Salts and free GSH were removed by ultrafiltration. Units of transferase activity were determined using 1-chloro-2,4-dinitrobenzene as substrate (Mannervik, B.; Danielson, U. H. CRC Critical Reviews in Biochemistry 1988, 23, 283-337). The reaction rate profile conformed to a double exponential decay, composed of a rapid, enzyme-dependent, initial phase involving 1b followed by a slower enzyme-independent first-order phase (FIG. 2, traces B and C).

T1 sequence (P09211 2-210 limits assumed): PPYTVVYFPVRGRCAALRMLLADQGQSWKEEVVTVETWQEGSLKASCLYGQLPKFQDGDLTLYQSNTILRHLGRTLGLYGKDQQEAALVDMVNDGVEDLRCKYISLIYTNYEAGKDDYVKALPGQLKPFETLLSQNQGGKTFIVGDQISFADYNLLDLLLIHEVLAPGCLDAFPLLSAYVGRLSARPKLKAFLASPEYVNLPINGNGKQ

By IC50 is commonly meant the midpoint of a concentration-inhibition curve. `C/C=C/C(=O)OCC1=C[C@@H](O)[C@@H](O)[C@@H](O)C1=O` [Compound 1a, 2-crotonyloxymethyl-(4R, 5R, 6R)-4,5,6-trihydroxy-2-cyclohexenone]: the “kcat/Km, fold lower than that of 1b” value in test [1] is around 8.3 fold. Besides, the IC50 in test [2] was 3 to 44 µM.

The term Ki denotes the dissociation constant of the complex between target and ligand, obtained from inhibition or displacement. With `NC(CCC(=O)NC(CSCC1=CC(O)C(O)C(O)C1=O)C(=O)NCC(=O)O)C(=O)O` (stereo not shown) [Compound 2a], the inhibitory constant (Ki) in test [3] was 183 ± 6 µM.

As for `N[C@@H](CCC(=O)N[C@@H](CSCC1=CCCCC1=O)C(=O)NCC(=O)O)C(=O)O` [Compound 2b], in test [4], the Ki stood at 107 ± 0.1 µM.
